Three compounds from ChEMBL document CHEMBL4052759, “Discovery of DS79182026: A potent orally active hepcidin production inhibitor” (Bioorg Med Chem Lett, 2017) can be followed below.

The structures appear in SMILES notation.

The target in assay [1] is Dual specificity protein kinase CLK3 (Homo sapiens) (UniProt P49761). In words: Inhibition of CLK3 (unknown origin) at 0.49 uM relative to control.
For assay [2], the target named is Interleukin-1 receptor-associated kinase 1 (Homo sapiens) (UniProt P51617). Description: Inhibition of IRAK1 (unknown origin) at 0.49 uM relative to control.
Assay [3] has as its target Tyrosine-protein kinase ABL2 (Homo sapiens) (UniProt P42684). Description: Inhibition of Arg (unknown origin) at 0.49 uM relative to control.
Assay [4] addresses Tyrosine-protein kinase Lyn (Homo sapiens) (UniProt P07948). Description: Inhibition of LYNB (unknown origin) at 0.49 uM relative to control.
Assay [5] deals with BDNF/NT-3 growth factors receptor (Homo sapiens) (UniProt Q16620). In words: Inhibition of NTRK2 (unknown origin) at 0.49 uM relative to control.
Assay [6] addresses Cyclin-dependent kinase 3 (Homo sapiens) (UniProt Q00526). In words: Inhibition of CDK3 (unknown origin) at 0.49 uM relative to control.
The target in assay [7] is Cyclin-dependent kinase 5/CDK5 activator 1 (Homo sapiens) (UniProt Q00535+Q15078). In words: Inhibition of CDK5/p25 (unknown origin) at 0.49 uM relative to control. Format: protein-complex assay.
Assay [8] deals with T1, Serine/threonine-protein kinase 3 (Homo sapiens) (UniProt Q13188).
T1 sequence (whole entry): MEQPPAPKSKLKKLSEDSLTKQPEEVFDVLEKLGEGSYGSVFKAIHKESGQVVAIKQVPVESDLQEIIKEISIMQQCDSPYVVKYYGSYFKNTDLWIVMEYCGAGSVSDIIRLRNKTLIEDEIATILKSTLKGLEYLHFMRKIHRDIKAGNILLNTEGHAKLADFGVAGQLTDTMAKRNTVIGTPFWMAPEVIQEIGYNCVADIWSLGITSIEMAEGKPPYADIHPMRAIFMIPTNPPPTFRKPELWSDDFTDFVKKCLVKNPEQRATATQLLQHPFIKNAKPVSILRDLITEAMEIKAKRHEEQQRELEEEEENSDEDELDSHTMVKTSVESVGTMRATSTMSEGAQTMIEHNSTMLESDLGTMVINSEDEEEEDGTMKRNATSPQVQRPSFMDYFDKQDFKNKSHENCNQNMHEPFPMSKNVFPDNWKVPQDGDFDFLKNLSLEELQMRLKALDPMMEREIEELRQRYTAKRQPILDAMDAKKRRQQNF
In words: Inhibition of MST2 (unknown origin) at 0.49 uM relative to control.

For assay [9], the target named is Maternal embryonic leucine zipper kinase (Homo sapiens) (UniProt Q14680). Description: Inhibition of MELK (unknown origin) at 0.49 uM relative to control.
Assay [10] addresses Ribosomal protein S6 kinase alpha-5 (Homo sapiens) (UniProt O75582). Description: Inhibition of MSK1 (unknown origin) at 0.49 uM relative to control.
In assay [11] the target is Ephrin type-A receptor 3 (Homo sapiens) (UniProt P29320). Description: Inhibition of EPHA3 (unknown origin) at 0.49 uM relative to control.
Assay [12] concerns Fibroblast growth factor receptor 1 (Homo sapiens), P11362 [V561M]. In words: Inhibition of FGFR1 V561M mutant (unknown origin) at 0.49 uM relative to control.
Assay [13] deals with T2, MAP kinase-activated protein kinase 5 (Homo sapiens) (UniProt Q8IW41).
T2 sequence (whole entry): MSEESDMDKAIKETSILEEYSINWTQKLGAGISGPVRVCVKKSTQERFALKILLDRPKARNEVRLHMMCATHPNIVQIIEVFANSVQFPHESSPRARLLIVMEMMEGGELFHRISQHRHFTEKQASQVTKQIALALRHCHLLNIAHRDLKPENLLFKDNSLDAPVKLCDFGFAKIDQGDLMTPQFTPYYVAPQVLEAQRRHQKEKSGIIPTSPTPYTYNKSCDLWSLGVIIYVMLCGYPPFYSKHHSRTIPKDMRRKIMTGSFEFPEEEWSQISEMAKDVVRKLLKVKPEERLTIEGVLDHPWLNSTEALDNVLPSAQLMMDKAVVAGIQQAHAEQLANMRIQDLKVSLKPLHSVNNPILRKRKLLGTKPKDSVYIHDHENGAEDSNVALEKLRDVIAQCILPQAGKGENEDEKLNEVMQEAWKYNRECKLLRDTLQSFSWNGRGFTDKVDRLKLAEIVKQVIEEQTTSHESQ
In words: Inhibition of PRAK (unknown origin) at 0.078 uM relative to control.

Assay [14] concerns the target Dual specificity tyrosine-phosphorylation-regulated kinase 1A (Homo sapiens) (UniProt Q13627). Description: Inhibition of DYRK1a (unknown origin) at 0.078 uM relative to control.
The target of assay [15] is Ribosomal protein S6 kinase alpha-2 (Homo sapiens) (UniProt Q15349). Description: Inhibition of RSK3 (unknown origin) at 0.45 uM relative to control.
The species named for a further assay is Homo sapiens. Description: Inhibition of ACK (unknown origin) at 0.45 uM relative to control.
Assay [16] has as its target Serine/threonine-protein kinase PAK 4 (Homo sapiens) (UniProt O96013). In words: Inhibition of PAK4 (unknown origin) at 0.45 uM relative to control.
Assay [17] deals with Serine/threonine-protein kinase 25 (Homo sapiens) (UniProt O00506). Description: Inhibition of YSK (unknown origin) at 0.45 uM relative to control.
Assay [18] addresses RAF proto-oncogene serine/threonine-protein kinase (Homo sapiens) (UniProt P04049). Description: Inhibition of c-Raf (unknown origin) at 0.45 uM relative to control.
Assay [19] has as its target Serine/threonine-protein kinase BRSK1 (Homo sapiens) (UniProt Q8TDC3). In words: Inhibition of BRSK1 (unknown origin) at 0.45 uM relative to control.
Assay [20] addresses Ribosomal protein S6 kinase alpha-6 (Homo sapiens) (UniProt Q9UK32). Description: Inhibition of RSK4 (unknown origin) at 0.45 uM relative to control.
The target in assay [21] is Cyclin-dependent kinase 1/cyclin B1 (Homo sapiens) (UniProt P06493+P14635). In words: Inhibition of CDK1/CyclinB (unknown origin) at 0.45 uM relative to control. The assay is classed as protein-complex assay.
The target in assay [22] is Serine/threonine-protein kinase Chk2 (Homo sapiens) (UniProt O96017). In words: Inhibition of CHK2 (unknown origin) at 0.45 uM relative to control.
Assay [23] concerns the target Tyrosine-protein kinase ABL1 (Homo sapiens) (UniProt P00519). Description: Inhibition of ABL (unknown origin) at 0.45 uM relative to control.
Assay [24] concerns the target Ephrin type-A receptor 8 (Homo sapiens) (UniProt P29322). Description: Inhibition of EPHA8 (unknown origin) at 0.45 uM relative to control.
Assay [25] addresses Mitogen-activated protein kinase 14 (Homo sapiens) (UniProt Q16539). In words: Inhibition of p38a (unknown origin) at 0.45 uM relative to control.
For assay [26], the target named is Homeodomain-interacting protein kinase 1 (Homo sapiens) (UniProt Q86Z02). In words: Inhibition of HIPK1 (unknown origin) at 0.45 uM relative to control.

Chain of Tyrosine-protein kinase ABL2 (Homo sapiens) (P42684 whole entry): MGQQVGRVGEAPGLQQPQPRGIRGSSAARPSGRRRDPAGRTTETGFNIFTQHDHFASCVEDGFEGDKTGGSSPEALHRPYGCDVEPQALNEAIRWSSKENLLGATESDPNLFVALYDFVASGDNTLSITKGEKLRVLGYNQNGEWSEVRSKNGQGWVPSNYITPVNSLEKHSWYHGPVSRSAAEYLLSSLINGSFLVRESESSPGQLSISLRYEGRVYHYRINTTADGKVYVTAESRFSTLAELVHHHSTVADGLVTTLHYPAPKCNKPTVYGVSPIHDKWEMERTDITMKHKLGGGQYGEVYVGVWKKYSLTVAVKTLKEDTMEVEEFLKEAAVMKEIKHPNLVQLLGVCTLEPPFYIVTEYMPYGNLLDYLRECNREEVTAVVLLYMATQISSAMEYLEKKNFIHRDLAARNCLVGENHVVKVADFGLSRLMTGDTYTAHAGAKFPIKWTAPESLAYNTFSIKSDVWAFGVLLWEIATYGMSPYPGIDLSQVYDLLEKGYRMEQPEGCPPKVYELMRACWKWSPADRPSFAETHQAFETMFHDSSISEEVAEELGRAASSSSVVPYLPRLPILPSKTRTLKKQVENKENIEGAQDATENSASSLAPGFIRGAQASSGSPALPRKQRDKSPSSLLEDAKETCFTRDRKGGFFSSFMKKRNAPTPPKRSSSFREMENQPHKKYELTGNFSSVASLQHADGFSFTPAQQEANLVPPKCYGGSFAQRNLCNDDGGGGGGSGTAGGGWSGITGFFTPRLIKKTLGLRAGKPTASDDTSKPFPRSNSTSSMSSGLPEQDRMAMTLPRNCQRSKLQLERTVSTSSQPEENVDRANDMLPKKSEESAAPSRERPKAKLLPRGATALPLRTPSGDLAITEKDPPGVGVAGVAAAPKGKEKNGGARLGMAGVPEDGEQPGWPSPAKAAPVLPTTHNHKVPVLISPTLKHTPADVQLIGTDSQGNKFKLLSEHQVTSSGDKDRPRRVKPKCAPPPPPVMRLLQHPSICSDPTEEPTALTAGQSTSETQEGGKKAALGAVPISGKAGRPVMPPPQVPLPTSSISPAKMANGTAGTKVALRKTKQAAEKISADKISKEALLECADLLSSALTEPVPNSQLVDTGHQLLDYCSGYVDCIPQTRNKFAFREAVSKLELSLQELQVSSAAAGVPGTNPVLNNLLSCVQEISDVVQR
Chain of Tyrosine-protein kinase ABL1 (Homo sapiens) (P00519 whole entry): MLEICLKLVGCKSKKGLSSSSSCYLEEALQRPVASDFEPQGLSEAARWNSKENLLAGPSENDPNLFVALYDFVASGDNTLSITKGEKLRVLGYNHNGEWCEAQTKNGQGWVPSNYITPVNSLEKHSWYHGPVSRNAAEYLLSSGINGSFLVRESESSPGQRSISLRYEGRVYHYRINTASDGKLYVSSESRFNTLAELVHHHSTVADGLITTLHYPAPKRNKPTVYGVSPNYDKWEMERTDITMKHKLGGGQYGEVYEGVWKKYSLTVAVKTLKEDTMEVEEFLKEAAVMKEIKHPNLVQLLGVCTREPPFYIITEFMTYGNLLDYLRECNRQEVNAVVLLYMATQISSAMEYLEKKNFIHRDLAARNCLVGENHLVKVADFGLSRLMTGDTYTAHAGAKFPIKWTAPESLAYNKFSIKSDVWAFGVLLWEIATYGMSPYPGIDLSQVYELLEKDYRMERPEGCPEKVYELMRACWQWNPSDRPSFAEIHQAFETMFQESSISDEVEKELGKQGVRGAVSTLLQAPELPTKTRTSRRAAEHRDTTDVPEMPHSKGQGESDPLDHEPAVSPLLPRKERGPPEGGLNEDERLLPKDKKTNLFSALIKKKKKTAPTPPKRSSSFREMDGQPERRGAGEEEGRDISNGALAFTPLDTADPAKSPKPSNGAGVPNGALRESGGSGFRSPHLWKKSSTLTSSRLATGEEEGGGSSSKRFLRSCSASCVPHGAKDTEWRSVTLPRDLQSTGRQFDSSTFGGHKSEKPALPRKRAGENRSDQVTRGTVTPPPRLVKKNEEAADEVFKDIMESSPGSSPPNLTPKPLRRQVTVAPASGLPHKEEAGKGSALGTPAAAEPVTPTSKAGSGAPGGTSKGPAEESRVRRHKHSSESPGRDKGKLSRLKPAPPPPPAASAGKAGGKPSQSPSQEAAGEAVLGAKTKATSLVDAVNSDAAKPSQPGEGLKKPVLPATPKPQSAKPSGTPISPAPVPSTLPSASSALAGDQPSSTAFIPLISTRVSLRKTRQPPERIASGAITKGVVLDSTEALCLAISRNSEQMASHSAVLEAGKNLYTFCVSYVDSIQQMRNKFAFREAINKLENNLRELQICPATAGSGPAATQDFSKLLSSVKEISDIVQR
Chain of BDNF/NT-3 growth factors receptor (Homo sapiens) (Q16620 32-822 limits assumed): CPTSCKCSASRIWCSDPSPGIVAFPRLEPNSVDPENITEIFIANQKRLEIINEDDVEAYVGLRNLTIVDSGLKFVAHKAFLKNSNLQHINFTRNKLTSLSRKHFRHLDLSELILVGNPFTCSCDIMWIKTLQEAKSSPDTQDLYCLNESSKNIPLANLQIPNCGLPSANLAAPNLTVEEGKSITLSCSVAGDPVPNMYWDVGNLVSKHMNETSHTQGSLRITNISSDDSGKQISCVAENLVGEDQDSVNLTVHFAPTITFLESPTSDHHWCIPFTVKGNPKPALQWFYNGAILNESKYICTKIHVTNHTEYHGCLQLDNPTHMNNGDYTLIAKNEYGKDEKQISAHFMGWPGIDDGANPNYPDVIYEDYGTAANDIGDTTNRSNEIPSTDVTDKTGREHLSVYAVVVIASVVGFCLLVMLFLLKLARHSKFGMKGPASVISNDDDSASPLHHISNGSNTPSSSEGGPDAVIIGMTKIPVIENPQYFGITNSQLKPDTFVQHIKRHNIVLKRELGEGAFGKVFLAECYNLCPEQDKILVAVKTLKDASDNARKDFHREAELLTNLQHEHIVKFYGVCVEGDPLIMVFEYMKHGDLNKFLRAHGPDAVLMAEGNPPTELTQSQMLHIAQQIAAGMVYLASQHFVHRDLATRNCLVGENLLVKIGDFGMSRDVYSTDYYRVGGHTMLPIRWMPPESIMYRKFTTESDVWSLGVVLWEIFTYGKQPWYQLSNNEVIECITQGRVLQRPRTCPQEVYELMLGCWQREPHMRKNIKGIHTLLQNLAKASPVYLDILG
Chain of RAF proto-oncogene serine/threonine-protein kinase (Homo sapiens) (P04049 whole entry): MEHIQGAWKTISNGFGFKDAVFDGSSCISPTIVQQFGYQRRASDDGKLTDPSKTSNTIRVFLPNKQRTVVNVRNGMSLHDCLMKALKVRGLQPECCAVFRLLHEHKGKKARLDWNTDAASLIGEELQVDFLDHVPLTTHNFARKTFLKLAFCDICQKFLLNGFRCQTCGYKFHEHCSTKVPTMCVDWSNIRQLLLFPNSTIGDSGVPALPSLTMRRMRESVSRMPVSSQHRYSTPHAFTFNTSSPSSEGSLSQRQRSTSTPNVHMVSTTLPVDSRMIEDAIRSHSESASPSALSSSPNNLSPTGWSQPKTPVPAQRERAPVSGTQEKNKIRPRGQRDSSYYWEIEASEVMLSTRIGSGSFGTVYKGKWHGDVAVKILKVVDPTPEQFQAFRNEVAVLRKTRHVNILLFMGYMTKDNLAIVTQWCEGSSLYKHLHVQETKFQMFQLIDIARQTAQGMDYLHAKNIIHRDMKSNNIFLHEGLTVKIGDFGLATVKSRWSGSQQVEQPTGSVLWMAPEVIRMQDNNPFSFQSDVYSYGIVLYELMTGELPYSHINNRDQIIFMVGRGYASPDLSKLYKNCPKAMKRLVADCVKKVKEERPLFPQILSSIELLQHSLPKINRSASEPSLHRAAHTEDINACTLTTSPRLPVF
Chain of Ribosomal protein S6 kinase alpha-6 (Homo sapiens) (Q9UK32 whole entry): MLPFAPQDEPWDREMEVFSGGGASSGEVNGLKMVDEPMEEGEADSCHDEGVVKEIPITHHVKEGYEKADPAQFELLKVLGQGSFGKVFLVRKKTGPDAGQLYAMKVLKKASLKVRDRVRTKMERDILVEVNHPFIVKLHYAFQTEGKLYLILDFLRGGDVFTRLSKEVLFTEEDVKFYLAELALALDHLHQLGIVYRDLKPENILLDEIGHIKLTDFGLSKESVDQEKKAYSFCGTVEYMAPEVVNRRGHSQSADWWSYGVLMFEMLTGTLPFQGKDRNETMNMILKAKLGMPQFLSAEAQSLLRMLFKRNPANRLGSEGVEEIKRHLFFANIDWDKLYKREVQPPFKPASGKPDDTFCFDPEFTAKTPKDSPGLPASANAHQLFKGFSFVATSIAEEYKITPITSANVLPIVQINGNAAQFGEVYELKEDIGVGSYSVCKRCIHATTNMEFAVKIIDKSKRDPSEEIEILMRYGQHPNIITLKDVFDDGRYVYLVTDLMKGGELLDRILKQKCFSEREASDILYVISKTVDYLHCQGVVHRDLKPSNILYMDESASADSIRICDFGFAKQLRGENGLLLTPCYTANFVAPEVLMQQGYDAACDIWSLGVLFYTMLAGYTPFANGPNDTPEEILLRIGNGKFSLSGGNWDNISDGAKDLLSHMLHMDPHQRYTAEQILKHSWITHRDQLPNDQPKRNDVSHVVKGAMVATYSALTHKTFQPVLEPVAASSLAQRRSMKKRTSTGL
Chain of Dual specificity protein kinase CLK3 (Homo sapiens) (P49761 whole entry, looked up): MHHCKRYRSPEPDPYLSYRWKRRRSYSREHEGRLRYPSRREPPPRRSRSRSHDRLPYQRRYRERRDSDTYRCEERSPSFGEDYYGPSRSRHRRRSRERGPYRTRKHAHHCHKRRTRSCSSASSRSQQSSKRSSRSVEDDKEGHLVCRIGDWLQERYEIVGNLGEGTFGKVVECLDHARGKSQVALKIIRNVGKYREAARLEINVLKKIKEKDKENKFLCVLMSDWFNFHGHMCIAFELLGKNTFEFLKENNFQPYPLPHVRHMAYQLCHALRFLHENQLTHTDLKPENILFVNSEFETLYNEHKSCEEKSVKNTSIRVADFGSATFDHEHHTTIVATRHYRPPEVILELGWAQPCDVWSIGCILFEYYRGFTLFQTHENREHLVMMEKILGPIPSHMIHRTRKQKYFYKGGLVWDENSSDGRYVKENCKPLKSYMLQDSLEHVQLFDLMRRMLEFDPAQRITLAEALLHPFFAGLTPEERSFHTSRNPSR

On to `Cc1[nH]nc(C2CC2)c1-c1ccc2c(NC(=O)C3CC3)noc2c1`, for which the inhibition in [1] was found to be 0.7%; in assay [2] it was 6.7%; in assay [3], 7.7%; in assay [4] it was 3%; in [5], 4.3%; in assay [6], 3.3%. The inhibition in assay [7] came to 4.3%; in assay [8] it was 1%; in [9], 4%; in assay [10], 5.7%; in assay [11], 0.7%; in assay [12], 3.7%.

Turning to `COC(=O)Nc1noc2cc(-c3c(-c4ccccn4)n[nH]c3C)ccc12`, the inhibition in [13] is -3%; in assay [14], 9.7%.

As for `Cc1n[nH]c(C)c1-c1ccc2c(NC(=O)c3ccc(N4CCN(C)CC4)cc3)n[nH]c2c1`, the inhibition came out at 42.7% in assay [15]; 13% in the assay listed under Homo sapiens; 4% in assay [16]; 31% in assay [17]; 7% in assay [18]; 14% in assay [19]. For the same compound, the inhibition in assay [20] amounted to 50.7%; in assay [21], 5.3%; in assay [22], 3%; in [23] it was 82%; in assay [24] it was 3.7%; in [25], 1.7%. For the same compound, the inhibition in [26] was found to be 2.7%.
